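Method: 48-hour compound exposure of cells in 96-well plates, five concentrations, linear interpolation of endpoints. Here, GI50 denotes the concentration required for 50% inhibition of growth. TGI marks complete inhibition of growth.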
Key:
Experiment in all cases: growth of human tumour cells (NCI), 48 h
[1] = system: 786-0 renal
[2] = system: CAKI-1 renal
[3] = system: HOP-92 NSCLC
[4] = system: SNB-75 CNS
[5] = system: ACHN renal
[6] = system: U251 CNS
[7] = system: UO-31 renal
[8] = system: SK-MEL-5 melanoma
[9] = system: SF-268 CNS
[10] = system: HOP-62 NSCLC
[11] = system: A498 renal
[12] = system: UACC-62 melanoma
[13] = system: UACC-257 melanoma
[14] = system: TK-10 renal
[15] = system: NCI-H226 lung
[16] = system: OVCAR-4 ovarian
[17] = system: MALME-3M melanoma
[18] = system: NCI-H522 lung
[19] = system: DU-145 prostate
[20] = system: OVCAR-8 ovarian
[21] = system: RXF 393 renal
[22] = system: SF-539 CNS
[23] = system: BT-549 breast
[24] = system: HCC-2998 colon
[25] = system: IGROV1 ovarian
[26] = system: SK-OV-3 ovarian
[27] = system: OVCAR-5 ovarian
[28] = system: SK-MEL-2 melanoma
[29] = system: NCI-H460 lung
[30] = system: SF-295 CNS
[31] = system: SK-MEL-28 melanoma
[32] = system: MDA-MB-435
[33] = system: COLO 205 colon

Q: With `COc1cc2c(-c3nc4cc(Cl)c(F)cc4s3)cc(=O)oc2c(C)c1OC` as the molecule, how does the GI50 [1] read?
A: 1020 nM

Q: And the TGI [1]?
A: 2210 nM

Q: What about the GI50 [2] of the same molecule?
A: 307 nM

Q: What about the TGI [2] of the same molecule?
A: 780 nM

Q: What about the GI50 [3] of the same molecule?
A: 498 nM

Q: And the TGI [3]?
A: 2160 nM

Q: What about the GI50 [4] of the same molecule?
A: 620 nM

Q: What about the TGI [4] of the same molecule?
A: 1920 nM

Q: What about the GI50 [5] of the same molecule?
A: 1360 nM

Q: What about the TGI [5] of the same molecule?
A: 2810 nM

Q: What about the GI50 [6] of the same molecule?
A: 1290 nM

Q: What about the TGI [6] of the same molecule?
A: 2660 nM

Q: What about the GI50 [7] of the same molecule?
A: 154 nM

Q: And the TGI [7]?
A: 339 nM

Q: What about the GI50 [8] of the same molecule?
A: 1230 nM

Q: And the TGI [8]?
A: 2560 nM

Q: And the GI50 [9]?
A: 1140 nM

Q: What about the TGI [9] of the same molecule?
A: 3240 nM

Q: And the GI50 [10]?
A: 1670 nM

Q: And the TGI [10]?
A: 3160 nM

Q: What about the GI50 [11] of the same molecule?
A: 1500 nM

Q: What about the TGI [11] of the same molecule?
A: 2870 nM

Q: What about the GI50 [12] of the same molecule?
A: 1300 nM

Q: What about the TGI [12] of the same molecule?
A: 2690 nM

Q: And the GI50 [13]?
A: 1380 nM

Q: And the TGI [13]?
A: 2890 nM

Q: And the GI50 [14]?
A: 1960 nM

Q: And the TGI [14]?
A: 3470 nM

Q: What about the GI50 [15] of the same molecule?
A: 1720 nM

Q: What about the TGI [15] of the same molecule?
A: 3990 nM

Q: What about the GI50 [16] of the same molecule?
A: 1650 nM

Q: What about the TGI [16] of the same molecule?
A: 3160 nM

Q: What about the GI50 [17] of the same molecule?
A: 311 nM

Q: What about the TGI [17] of the same molecule?
A: 1140 nM

Q: And the GI50 [18]?
A: 176 nM

Q: And the TGI [18]?
A: 354 nM

Q: And the GI50 [19]?
A: 1620 nM

Q: What about the TGI [19] of the same molecule?
A: 3050 nM

Q: What about the GI50 [20] of the same molecule?
A: 1500 nM

Q: And the TGI [20]?
A: 3470 nM

Q: What about the GI50 [21] of the same molecule?
A: 1550 nM

Q: What about the TGI [21] of the same molecule?
A: 3080 nM

Q: And the GI50 [22]?
A: 183 nM

Q: What about the TGI [22] of the same molecule?
A: 379 nM

Q: What about the GI50 [23] of the same molecule?
A: 648 nM

Q: What about the TGI [23] of the same molecule?
A: 1820 nM

Q: And the GI50 [24]?
A: 2400 nM

Q: And the TGI [24]?
A: 4290 nM

Q: And the GI50 [25]?
A: 207 nM

Q: What about the TGI [25] of the same molecule?
A: 662 nM

Q: And the GI50 [26]?
A: 1630 nM

Q: What about the TGI [26] of the same molecule?
A: 3030 nM

Q: What about the GI50 [27] of the same molecule?
A: 1800 nM

Q: And the TGI [27]?
A: 3390 nM

Q: And the GI50 [28]?
A: 2070 nM

Q: And the TGI [28]?
A: 3900 nM

Q: And the GI50 [29]?
A: 2110 nM

Q: And the TGI [29]?
A: 4610 nM

Q: And the GI50 [30]?
A: 1010 nM

Q: And the TGI [30]?
A: 2340 nM

Q: What about the GI50 [31] of the same molecule?
A: 1810 nM

Q: What about the TGI [31] of the same molecule?
A: 3490 nM

Q: And the GI50 [32]?
A: 1770 nM

Q: And the TGI [32]?
A: 3760 nM

Q: And the GI50 [33]?
A: 1660 nM

Q: And the TGI [33]?
A: 3320 nM

Source: PubChem BioAssay (NCI)
